# Results published in paper PMC2678238 (Journal of biological inorganic chemistry : JBIC : a …, 2009).
# Where two headings read alike, the source gives them in different places.
# Legend:
# [1] = molecular target: T1, Co(II)-loaded EcMetAP-I (Escherichia coli, UniProt P0AE18); test: Isothermal titration calorimetry; type: binding; details: for n (stoichiometry): ITC fit; for TΔS / ΔG: from ITC via Gibbs relationship
# [2] = molecular target: T2, Co(II)-loaded PfMetAP-II (Pyrococcus furiosus, UniProt P56218); test: Isothermal titration calorimetry; type: binding; details: for n (stoichiometry): ITC fit; for TΔS / ΔG: from ITC via Gibbs relationship
# [3] = molecular target: T3, Mn(II)-loaded PfMetAP-II (Pyrococcus furiosus, UniProt P56218); test: Enzymatic assay of MetAP; type: biochemical
# [4] = system: Co(II)-loaded HsMetAP-II; details: in words; cited from earlier work
# [5] = molecular target: T2, Co(II)-loaded PfMetAP-II; test: Enzymatic assay of MetAP; type: biochemical
# [6] = molecular target: T4, Mn(II)-loaded EcMetAP-I (Escherichia coli, UniProt P0AE18); test: Enzymatic assay of MetAP; type: biochemical
# [7] = molecular target: T4, Mn(II)-loaded EcMetAP-I; test: Isothermal titration calorimetry; type: binding; details: for fold stronger binding (Kd) to Co(II)-loaded than Mn(II)-loaded EcMetAP-I: ITC Kd Mn(II)-loaded vs Co(II)-loaded EcMetAP-I; for n (stoichiometry): ITC fit
# [8] = molecular target: T3, Mn(II)-loaded PfMetAP-II; test: Isothermal titration calorimetry; type: binding; details: for fold stronger binding (Kd) to Co(II)-loaded than Mn(II)-loaded PfMetAP-II: ITC Kd Mn(II)-loaded vs Co(II)-loaded PfMetAP-II; for n (stoichiometry): ITC fit
# [9] = molecular target: T1, Co(II)-loaded EcMetAP-I; test: Enzymatic assay of MetAP; type: biochemical
# [10] = system: Mn(II)-loaded HsMetAP-II; details: in words; cited from earlier work
# [11] = [MnMn(EcMetAP-I)], from ITC via Gibbs relationship
# [12] = [MnMn(PfMetAP-II)], from ITC via Gibbs relationship
# T3 sequence (P56218 whole entry): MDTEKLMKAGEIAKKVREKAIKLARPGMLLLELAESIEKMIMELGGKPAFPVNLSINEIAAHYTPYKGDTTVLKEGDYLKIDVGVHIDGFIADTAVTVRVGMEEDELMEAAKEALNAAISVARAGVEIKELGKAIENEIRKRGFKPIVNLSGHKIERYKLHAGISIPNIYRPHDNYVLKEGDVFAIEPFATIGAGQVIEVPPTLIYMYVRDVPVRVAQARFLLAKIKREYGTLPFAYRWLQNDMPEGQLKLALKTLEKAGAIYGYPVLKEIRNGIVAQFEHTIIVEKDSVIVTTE
# T2 sequence (P56218 whole entry): as above
# T4 sequence (P0AE18 whole entry): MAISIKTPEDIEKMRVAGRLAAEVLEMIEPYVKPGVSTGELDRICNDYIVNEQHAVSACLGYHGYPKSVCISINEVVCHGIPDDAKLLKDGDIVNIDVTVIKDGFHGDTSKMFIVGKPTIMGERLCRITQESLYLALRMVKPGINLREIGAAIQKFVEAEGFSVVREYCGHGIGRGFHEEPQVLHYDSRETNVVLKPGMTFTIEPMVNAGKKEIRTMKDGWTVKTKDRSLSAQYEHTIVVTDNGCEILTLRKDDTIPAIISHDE
# T1 sequence (P0AE18 whole entry): as above
Structure (SMILES),n (stoichiometry) ([1]; [CoCo(EcMetAP-I)]),TΔS ([1]; [CoCo(EcMetAP-I)]),ΔG ([1]; [CoCo(EcMetAP-I)]),n (stoichiometry) ([2]; [CoCo(PfMetAP-II)]),TΔS ([2]; [CoCo(PfMetAP-II)]),ΔG ([2]; [CoCo(PfMetAP-II)]),inhibition of Co(II)-loaded HsMetAP-II [4],fold stronger binding (Kd) to Co(II)-loaded than Mn(II)-loaded EcMetAP-I [7],n (stoichiometry) ([7]; [MnMn(EcMetAP-I)]),"ΔG [7, 11]",fold stronger binding (Kd) to Co(II)-loaded than Mn(II)-loaded PfMetAP-II [8],n (stoichiometry) ([8]; [MnMn(PfMetAP-II)]),"ΔG [8, 12]",also measured
"c1ccc2cc(CSc3nnc[nH]3)ccc2c1 [A-310840, 3-((2-naphthylmethyl)sulfanyl)-4H-1,2,4-triazole]",1,4.78 kcal/mol,-6.81 kcal/mol,1,6.45 kcal/mol,-7.77 kcal/mol,strongly inhibits,approximately 71 fold,1,-4.28 kcal/mol,approximately 333 fold,1,-4.33 kcal/mol,"Kd [1]: 10 ± 0.1 µM; Kd [2]: 2 ± 0.1 µM; IC50 [3]: 1000 µM; Ki [3]: 440 µM; fold less potent (IC50) for Mn(II)-loaded than Co(II)-loaded PfMetAP-II ([3]; IC50 Mn(II)-loaded vs Co(II)-loaded PfMetAP-II): approximately 67 fold; IC50 [5]: 15 µM; Ki [5]: 3 µM; IC50 [6]: 1000 µM; Ki [6]: 750 µM; fold less potent (IC50) for Mn(II)-loaded than Co(II)-loaded EcMetAP-I ([6]; IC50 Mn(II)-loaded vs Co(II)-loaded EcMetAP-I): approximately 23 fold; Kd [7]: 714 ± 10 µM; Kd [8]: 666 ± 10 µM; TΔS [8, 12]: 4.06 kcal/mol; IC50 [9]: 44 µM; Ki [9]: 8 µM"
"CCSCC[C@@H](N)C(O)C(=O)N[C@@H](C)c1cccc2ccccc12 (mixture of isomers) [A-311263, ((2RS,3R)-3-amino-2-hydroxy-5-ethylthio)pentanoyl-((S)-(−)-(1-naphthyl)ethyl)amide]",1,7.89 kcal/mol,-7.65 kcal/mol,1,5.02 kcal/mol,-8.65 kcal/mol,equally well,approximately 21 fold,1,-5.86 kcal/mol,approximately 58 fold,1,-6.24 kcal/mol,"Kd ([1]; [CoCo(EcMetAP-I)], ITC, 25.0 °C, HEPES pH 7.5): 2.4 ± 0.1 µM; Kd ([2]; [CoCo(PfMetAP-II)], ITC, 25.0 °C, HEPES pH 7.5): 0.45 ± 0.11 µM; Ki ([5]; [CoCo(PfMetAP-II)], competitive inhibition fit, substrate MGMM): 2 µM; Kd ([7]; [MnMn(EcMetAP-I)], ITC, 25.0 °C, HEPES pH 7.5): 50 ± 5 µM; TΔS [7, 11]: 1.4 kcal/mol; Kd ([8]; [MnMn(PfMetAP-II)], ITC, 25.0 °C, HEPES pH 7.5): 26 ± 5 µM; inhibition of Mn(II)-loaded HsMetAP-II [10]: equally well; Ki ([9]; [CoCo(EcMetAP-I)], competitive inhibition fit, substrate MGMM): 3 µM"
